Experimental data from patent publication US20140005163A1 (NOVARTIS AG, priority 2010, published 2014).

What was measured:
mTOR = biological target: T1, mTOR (Homo sapiens, UniProt P42345); experiment: Biochemical assay for m-TOR by TR-FRET; details: 8 μM ATP, 400 nM GFP-4EBP1, 0.5 nM mTOR
T1 construct: purchased Invitrogen Corporation (Carlsbad/CA, USA) PV4753
Procedure: Biochemical Assay for m-TOR by TR-FRET.
Assay components are purchased from Invitrogen Corporation (Carlsbad/CA, USA): GFP-4EBP1 (Cat. No. PV4759), Tb3+-α-p4EBP1 [pThr46] Antibody (Cat. No. PV4757), proprietary TR-FRET dilution buffer (Cat. No. PV3574), mTOR protein (Cat. No. PV4753).
Then 5 μL of ATP (8 μM final concentration) and GFP-4EBP1 (400 nM final concentration) with 5 μL mTOR proteins (0.5 nM final concentration) are incubated at rt. The standard reaction buffer for the TR-FRET mTOR assay contained 50 mM HEPES pH 7.5, 10 mM MnCl2, 50 mM NaCl, 1 mM EGTA, 1 mM DTT. Reactions were stopped with 10 μL of a mixture of EDTA containing the Tb3+-α-p4EBP1-[pT46] detection Ab (0.5 nM) in TR-FRET dilution buffer (proprietary to IVG). Plates are read 15 mins later in a Synergy2 reader using an integration time of 0.2 seconds and a delay of 0.1 seconds. […] A standard compound is used as a reference compound and included in all assay plates in the form of 16 dilution points in duplicate.

[1] = system: PKB Ser473 phosphorylation in Rat1-myr-HA-p110 delta cells; experiment: Reverse protein array assay, PKB Ser473 phosphorylation in Rat1-myr-p110 delta cells; assay type: cell-based; details: read-out: p-PKB IC50
Procedure: (§1) The Rat1-myr-HA-p110 alpha, beta and delta cells were trypsinized and counted with a CASY TT cell counter (Schärfe System GmbH, Reutlingen Germany). […] The plates were incubated at 37° C. and 5% CO2 under humidified condition for at least 20 h. Compound of formula I working solutions were prepared freshly as serial 8 step dilutions (vol/vol) in DMSO on the day of the experiment. […] The final DMSO concentration was kept constant at 0.2%. cell culture medium containing 0.2% DMSO was used as vehicle treatment control. Post incubation, the cells were treated with the serial compound dilution. 50 μl of the compound medium mixture was added to the wells containing cells and 150 μl DMEM medium and incubated for 30 minutes (37° C., 5% CO2). After 30 minutes of incubation, the medium mixture was quickly removed by aspiration. […] 50 μl of the described lysis buffer mix was added to each well, followed by 10 minutes of incubation on ice.
(§2) The samples were spotted onto ZeptoMARKt PWG protein microarray chips (Zeptosens, Witterswil, Switzerland) with the piezoelectric microdispense-based, non-contact Nano-Plotter 2.1 (GeSiM, Grosserkmannsdorf, Germany). Each sample was spotted at 4 different sample concentrations (d1=100%, d2=75%, d3=50%, d4=25%) by diluting the cell lysate with the corresponding volume of lysis buffer mix. After spotting the ZeptoMARK® protein microarrays, the chips are incubated for 1 hour at 37° C. […] After 20 minutes of blocking the chips are extensively rinsed with deionized water (Milli-Q quality, 18MΩ×cm) and dried in a nitrogen air flow.
(§3) After incubation, the arrays were washed twice with 200 μl CAB1 buffer. […] The fluorescence signal was assessed with exposure times of 1, 3, 5 and 10 seconds, depending on the intensity of the signal. The resulting four images taken per array are stored as 16-bit TIF files.
(§4) The fluorescence images for each array were analyzed with the ZeptoVIEW Pro 2.0 software (Zeptosens, Witterswil, Switzerland) and the relative fluorescence intensity for each signal was calculated.

[2] = system: PKB Ser473 phosphorylation in Rat1-myr-HA-p110 alpha cells; experiment: Reverse protein array assay, PKB Ser473 phosphorylation in Rat1-myr-p110 alpha cells; assay type: cell-based; details: 0.5 h, pAkt Ser473, 30 minutes compound incubation, read-out: p-PKB IC50
Procedure: as §1, §2, §3, §4

[3] = system: S6 Ribosomal Protein phosphorylation Ser235/236 in TSC1 null mouse embryo fibroblast (MEF) cells; experiment: Reverse protein array assay, S6 Ribosomal Protein phosphorylation Ser235/236 in TSC1 null MEF cells; assay type: cell-based; details: 1 h, pS6 ribosomal protein Ser235/236, 60 minutes incubation, read-out: p-S6 IC50
Procedure: as §1, with “TSC1−/−” for “Rat1-myr-HA-p110 alpha, beta and delta”, “(Schirfe” for “(Schärfe”, “Working” for “Compound of formula I working”, “0.02%.” for “0.2%.”, “0.02%” for “0.2%”, “60” for “30”
The spotting of the chips follows the previous described method.

[4] = system: PKB Ser473 phosphorylation in Rat1-myr-HA-p110 beta cells; experiment: Reverse protein array assay, PKB Ser473 phosphorylation in Rat1-myr-p110 beta cells; assay type: cell-based; details: 0.5 h, pAkt Ser473, 30 minutes incubation, read-out: p-PKB IC50
Procedure: as §1, §2, §3, §4

PI3K alpha = biological target: T2, PI3K alpha (Homo sapiens, UniProt P42336); experiment: PI3K alpha kinase assay (Kinase-Glo luminescence); assay type: biochemical
T2 construct: p85(iSH2) fusion partner (see partner chain) (N); His tag (C); made in house; host or cells: baculovirus; Tn5 (Trichoplusia ni) or TiniPro insect cells
Procedure: In a more preferred assay, the kinase reaction is performed in a final volume of 10 μL per well of a low volume non binding CORNING, 384 well black plate (Cat. No. #3676). The final concentrations of ATP and phosphatidyl inositol (PI) in the assay are 1 μM and 10 μg/mL respectively. The reaction is started by the addition of ATP.
The components of the assay are added per well as follows:
[…] in 90% DMSO per well, in columns 1-20, 8 concentrations (1/3 and 1/3.33 serial dilution step) in single. • Low control: […] of 90% DMSO in half the wells of columns 23-24 (0.45% in final). • High control: […] of reference compound (e.g. compound of Example 7 in WO 2006/122806) in the other half of columns 23-24 (2.5 μM in final). • Standard: […] of reference compound as just mentioned diluted as the test compounds in columns 21-22 • 20 mL ‘buffer’ are prepared per assay: • 200 μL of 1M TRIS HCl pH7.5 (10 mM in final) • 60 μL of 1M MgCl2 (3 mM in final) • 500 μL of 2M NaCl (50 mM in final) • 100 μL of 10% CHAPS (0.05% in final) • 200 μL of 100 mM DTT (1 mM in final) • 18.94 mL of nanopure water • 10 mL ‘PI’ are prepared per assay: • 200 μL of 1 mg/ml L-alpha-Phosphatidylinositol (Liver Bovine, Avanti Polar Lipids Cat. No. 840042C MW=909.12) prepared in 3% OctylGlucoside (10 μg/ml in final) • 9.8 mL of ‘buffer’ • 10 mL ‘ATP’ are prepared per assay: • 6.7 μL of 3 mM stock of ATP giving a final concentration of 1 μM per well • 10 mL of ‘buffer’ • 2.5 mL of each PI3K construct are prepared per assay in ‘PI’ with the following final concentration: • 10 nM PI3K alfa EMV B1075 • 25 nM beta EMV BV949 • 10 nM delta EMV BV1060 • 150 nM gamma EMV BV950 • 5 μL of ‘PI/PI3K’ are added per well. • 5 μl ‘ATP’ are added per well to start the reaction. • The plates are then incubated at room temperature for 60 minutes (alfa, beta, delta) or 120 minutes (gamma). • The reaction is terminated by the addition of 10 μL Kinase-Glo (Promega Cat. No. #6714). • The assay plates are read after 10 minutes in Synergy 2 reader (BioTek, Vermont USA) with an integration time of 100 milliseconds and sensitivity set to 191. • Output: The High control is around 60'000 counts and the Low control is 30'000 or lower • This luminescence assay gives a useful Z′ ratio between 0.4 and 0.7
Two different constructs, BV 1052 and BV 1075, are used to generate the PI3 Kinase a proteins for compound screening.
IC50 is determined by a four parameter curve fitting routine that comes along with “excel fit”. […] Alternatively, IC50 values are calculated using idbsXLfit model 204, which is a 4 parameter logistic model.

T1 sequence (P42345 1360-2549 limits assumed): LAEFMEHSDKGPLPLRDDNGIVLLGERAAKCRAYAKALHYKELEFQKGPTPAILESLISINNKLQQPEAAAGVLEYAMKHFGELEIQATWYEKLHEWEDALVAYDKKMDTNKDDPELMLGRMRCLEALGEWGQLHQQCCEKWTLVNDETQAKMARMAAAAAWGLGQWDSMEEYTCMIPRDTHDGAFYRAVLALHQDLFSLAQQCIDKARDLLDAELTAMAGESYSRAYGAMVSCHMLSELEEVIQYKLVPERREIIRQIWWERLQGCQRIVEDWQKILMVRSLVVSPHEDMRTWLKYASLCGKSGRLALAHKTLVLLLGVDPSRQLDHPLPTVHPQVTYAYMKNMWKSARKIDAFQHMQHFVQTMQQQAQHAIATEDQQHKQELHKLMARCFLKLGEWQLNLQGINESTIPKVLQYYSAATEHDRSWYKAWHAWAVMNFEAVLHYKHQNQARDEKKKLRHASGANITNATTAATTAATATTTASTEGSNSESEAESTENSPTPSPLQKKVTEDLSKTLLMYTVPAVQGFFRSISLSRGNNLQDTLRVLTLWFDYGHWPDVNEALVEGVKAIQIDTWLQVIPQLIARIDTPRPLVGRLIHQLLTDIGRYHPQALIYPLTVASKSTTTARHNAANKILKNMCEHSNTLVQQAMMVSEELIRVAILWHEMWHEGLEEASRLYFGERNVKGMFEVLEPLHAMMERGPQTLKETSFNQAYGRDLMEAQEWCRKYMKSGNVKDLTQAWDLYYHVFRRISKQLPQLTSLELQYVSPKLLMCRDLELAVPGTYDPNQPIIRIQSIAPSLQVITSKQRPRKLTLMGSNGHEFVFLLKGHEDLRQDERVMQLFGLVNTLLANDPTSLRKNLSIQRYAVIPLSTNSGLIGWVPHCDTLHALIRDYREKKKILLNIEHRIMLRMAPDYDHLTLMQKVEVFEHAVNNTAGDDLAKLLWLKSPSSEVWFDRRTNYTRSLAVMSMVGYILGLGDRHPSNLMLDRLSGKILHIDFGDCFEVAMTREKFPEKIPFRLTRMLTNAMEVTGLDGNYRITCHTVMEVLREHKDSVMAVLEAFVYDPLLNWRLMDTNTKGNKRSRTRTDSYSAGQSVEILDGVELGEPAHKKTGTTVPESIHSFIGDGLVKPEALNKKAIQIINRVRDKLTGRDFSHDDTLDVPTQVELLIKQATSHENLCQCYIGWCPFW
T2 sequence (P42336 with tags, fused parts or gaps limits assumed): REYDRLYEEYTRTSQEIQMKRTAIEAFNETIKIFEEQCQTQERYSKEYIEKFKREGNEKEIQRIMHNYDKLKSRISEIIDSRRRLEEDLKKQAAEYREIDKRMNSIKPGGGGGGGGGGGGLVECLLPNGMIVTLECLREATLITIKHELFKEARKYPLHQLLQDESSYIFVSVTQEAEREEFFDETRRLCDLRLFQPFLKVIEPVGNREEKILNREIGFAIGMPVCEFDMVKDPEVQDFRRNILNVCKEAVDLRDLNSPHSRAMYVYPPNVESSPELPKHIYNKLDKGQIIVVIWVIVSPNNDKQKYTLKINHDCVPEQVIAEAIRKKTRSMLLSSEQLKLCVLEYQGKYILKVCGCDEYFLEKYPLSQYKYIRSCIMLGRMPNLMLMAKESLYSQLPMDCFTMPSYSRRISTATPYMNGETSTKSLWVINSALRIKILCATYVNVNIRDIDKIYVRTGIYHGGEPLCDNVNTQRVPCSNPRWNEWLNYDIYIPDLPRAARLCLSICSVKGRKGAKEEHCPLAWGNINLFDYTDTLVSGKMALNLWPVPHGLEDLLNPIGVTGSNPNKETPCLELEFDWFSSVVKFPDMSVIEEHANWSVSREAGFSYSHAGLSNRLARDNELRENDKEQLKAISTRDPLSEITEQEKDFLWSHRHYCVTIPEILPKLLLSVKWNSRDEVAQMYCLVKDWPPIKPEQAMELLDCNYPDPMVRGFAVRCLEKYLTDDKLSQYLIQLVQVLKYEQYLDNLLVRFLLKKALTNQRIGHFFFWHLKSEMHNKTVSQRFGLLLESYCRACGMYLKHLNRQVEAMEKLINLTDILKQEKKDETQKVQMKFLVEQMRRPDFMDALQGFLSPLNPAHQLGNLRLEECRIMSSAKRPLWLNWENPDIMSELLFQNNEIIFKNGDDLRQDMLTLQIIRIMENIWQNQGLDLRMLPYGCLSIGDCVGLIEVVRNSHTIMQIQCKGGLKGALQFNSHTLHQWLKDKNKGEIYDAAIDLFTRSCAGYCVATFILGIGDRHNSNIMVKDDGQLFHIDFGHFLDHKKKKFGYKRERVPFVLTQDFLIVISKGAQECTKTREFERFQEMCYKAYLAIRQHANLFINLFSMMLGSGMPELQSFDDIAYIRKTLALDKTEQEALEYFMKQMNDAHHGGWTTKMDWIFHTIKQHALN

Compound | IC50 (mTOR) | IC50 [1] | IC50 [2] | IC50 [3] | IC50 [4] | IC50 (PI3K alpha)
CCn1cc(-n2c(=O)n(C)c3cnc4ccc(-c5ccc(-n6cccn6)cc5)cc4c32)c(C)n1 [Example 51.3, 1-(1-Ethyl-3-methyl-1H-pyrazol-4-yl)-3-methyl-8-(4-pyrazol-1-yl-phenyl)-1,3-dihydro-imidazo[4,5-c]quinolin-2-one] | 6 nM | 15 nM | 8 nM | 2 nM | 9 nM | –
CCN(C)C(=O)Cn1cc(-n2c(=O)n(C)c3cnc4ccc(-c5ccc(-n6cccn6)cc5)cc4c32)c(C)n1 [Example 51.6, N-Ethyl-N-methyl-2-{3-methyl-4-[3-methyl-2-oxo-8-(4-pyrazol-1-yl-phenyl)-2,3-dihydro-imidazo[4,5-c]quinolin-1-yl]pyrazol-1-yl}-acetamide] | 27 nM | 15 nM | 12 nM | < 0.5 nM | 12 nM | 61 nM
CNc1ncc(-c2ccc3ncc4c(c3c2)n(-c2cn(C)nc2C)c(=O)n4C)cn1 [Example 80.1, 1-(1,3-Dimethyl-1H-pyrazol-4-yl)-3-methyl-8-(2-methylamino-pyrimidin-5-yl)-1,3-dihydro-imidazo[4,5-c]quinolin-2-one] | 13 nM | 5 nM | 13 nM | 3 nM | 13 nM | –
CCNc1cc(-c2ccc3ncc4c(c3c2)n(-c2c(C)noc2C)c(=O)n4C)cnc1Cl [Example 153.3, 8-(6-Chloro-5-ethylamino-pyridin-3-yl)-1-(3,5-dimethyl-isoxazol-4-yl)-3-methyl-1,3-dihydro-imidazo[4,5-c]quinolin-2-one] | 665 nM | 112 nM | 34 nM | 36 nM | 55 nM | –
COCc1ncc(-c2ccc3ncc4c(c3c2)n(-c2cn(C)nc2Cl)c(=O)n4C)cc1OC [Example 195.4, 1-(3-Chloro-1-methyl-1H-pyrazol-4-yl)-8-(5-methoxy-6-methoxymethyl-pyridin-3-yl)-3-methyl-1,3-dihydro-imidazo[4,5-c]quinolin-2-one] | 8 nM | 21 nM | 20 nM | 2 nM | 23 nM | –
CCC(O)(CC)c1cncc(-c2ccc3ncc4c(c3c2)n(-c2cn(C)nc2C)c(=O)n4C)c1 [Example 216, 1-(1,3-Dimethyl-1H-pyrazol-4-yl)-8-[5-(1-ethyl-1-hydroxy-propyl)-pyridin-3-yl]-3-methyl-1,3-dihydro-imidazo[4,5-c]quinolin-2-one] | 4 nM | 56 nM | 10 nM | < 0.5 nM | 57 nM | –
Cc1nn(CC(=O)N2CCOCC2)cc1-n1c(=O)n(C)c2cnc3ccc(-c4cnc(N5CCCC5)nc4)cc3c21 [Example 247.3, 3-Methyl-1-[3-methyl-1-(2-morpholin-4-yl-2-oxo-ethyl)-1H-pyrazol-4-yl]-8-(2-pyrrolidin-1-yl-pyrimidin-5-yl)-1,3-dihydro-imidazo[4,5-c]quinolin-2-one] | 28 nM | 636 nM | 175 nM | 35 nM | 240 nM | 163 nM
Cc1nn(CC(=O)N2CCCC2)cc1-n1c(=O)n(C)c2cnc3ccc(-c4cnc(N5CCCC5)nc4)cc3c21 [Example 247.4, 3-Methyl-1-[3-methyl-1-(2-oxo-2-pyrrolidin-1-yl-ethyl)-1H-pyrazol-4-yl)-8-(2-pyrrolidin-1-yl-pyrimidin-5-yl)-1,3-dihydro-imidazo[4,5-c]quinolin-2-one] | 34 nM | 106 nM | 44 nM | 4 nM | 41 nM | –
